From US20030176501A1 (priority 2000, published 2003)

Tests used:
HMG-CoA reductase = target: T1, HMG-CoA reductase (Homo sapiens, UniProt P04035); conditions: in vivo, po
T1 sequence (P04035 1-888): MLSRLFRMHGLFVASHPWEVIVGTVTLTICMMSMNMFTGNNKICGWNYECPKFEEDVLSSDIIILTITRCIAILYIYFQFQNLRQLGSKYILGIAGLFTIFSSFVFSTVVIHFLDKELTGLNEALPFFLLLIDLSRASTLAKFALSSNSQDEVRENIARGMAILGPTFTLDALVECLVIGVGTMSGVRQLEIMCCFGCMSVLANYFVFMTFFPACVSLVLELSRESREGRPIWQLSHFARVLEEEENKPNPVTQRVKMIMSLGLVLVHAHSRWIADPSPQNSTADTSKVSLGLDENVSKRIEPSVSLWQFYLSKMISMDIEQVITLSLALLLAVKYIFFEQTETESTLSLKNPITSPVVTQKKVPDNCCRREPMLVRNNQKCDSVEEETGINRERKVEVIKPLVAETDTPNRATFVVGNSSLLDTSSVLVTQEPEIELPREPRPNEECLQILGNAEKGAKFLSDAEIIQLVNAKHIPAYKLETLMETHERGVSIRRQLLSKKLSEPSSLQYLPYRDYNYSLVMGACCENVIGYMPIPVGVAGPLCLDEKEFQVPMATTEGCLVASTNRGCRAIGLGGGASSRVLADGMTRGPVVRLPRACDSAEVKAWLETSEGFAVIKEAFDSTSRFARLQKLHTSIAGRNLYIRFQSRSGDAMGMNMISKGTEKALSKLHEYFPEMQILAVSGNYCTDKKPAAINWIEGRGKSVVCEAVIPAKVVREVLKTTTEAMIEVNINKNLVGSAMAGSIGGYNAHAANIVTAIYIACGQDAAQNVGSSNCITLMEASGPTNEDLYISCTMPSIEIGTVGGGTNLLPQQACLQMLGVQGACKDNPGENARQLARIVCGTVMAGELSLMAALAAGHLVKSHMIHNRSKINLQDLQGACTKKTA

[1] = parameters: species or system human; conditions: in vivo

## CCC(C)(C)C(=O)O[C@H]1C[C@@H](C)C=C2C=C[C@H](C)[C@H](CC[C@@H](O)C[C@@H](O)CC(=O)O)[C@H]21 [SVA, dihydroxy open acid simvastatin]
HMG-CoA reductase
  Cmax, Active Inhibitors: 5.7 ± 3.0 ng eq/mL
[1]
  apparent t1/2, effect of itraconazole: essentially unchanged
[1]; male, human, po
  t½, SV in plasma: 6.7 (1.7) hr
